We go through three compounds from patent publication US6525099B1, “N-substituted sulfonamide derivatives” (Eli Lilly and Company, priority 1998, dated 2003).

Series [1] deals with T1, human GluR4B receptor (Homo sapiens, UniProt P48058).
T1 construct: expressed in transfected cells
Kind of series: potentiation of glutamate receptor-mediated response in HEK cells stably expressing human GluR4B (Fluo-3 calcium fluorescence). Format: cell-based. The settings on record: human GluR4B receptor expressed in HEK 293 cells. The text has this:
The ability of compounds of formula I to potentiate glutamate receptor-mediated response may be determined using fluorescent calcium indicator dyes (Molecular Probes, Eugene, Oreg., Fluo-3) and by measuring glutamate-evoked efflux of calcium into GluR4 transfected HEK293 cells, as described in more detail below.
In one test, 96 well plates containing confluent monolayers of HEK cells stably expressing human GluR4B (obtained as described in European Patent Application Publication Number EP-A1-583917) are prepared. The tissue culture medium in the wells is then discarded, and the wells are each washed once with 200 μl of buffer (glucose, 10 mM, sodium chloride, 138 mM, magnesium chloride, 1 mM, potassium chloride, 5 mM, calcium chloride, 5 mM, N-[2-hydroxyethyl]-piperazine-N-[2-ethanesulfonic acid], 10 mM, to pH 7.1 to 7.3). […]
Each test is then performed as follows. […] A second fluorescent reading is taken after 5 minutes incubation. 15 μl of 400 μM glutamate solution is then added to each well (final glutamate concentration 100 μM), and a third reading is taken. The activities of test compounds and cyclothiazide solutions are determined by subtracting the second from the third reading (fluorescence due to addition of glutamate in the presence or absence of test compound or cyclothiazide) and are expressed relative to enhance fluorescence produced by 100 μM cyclothiazide.

T1 sequence (P48058 21-902): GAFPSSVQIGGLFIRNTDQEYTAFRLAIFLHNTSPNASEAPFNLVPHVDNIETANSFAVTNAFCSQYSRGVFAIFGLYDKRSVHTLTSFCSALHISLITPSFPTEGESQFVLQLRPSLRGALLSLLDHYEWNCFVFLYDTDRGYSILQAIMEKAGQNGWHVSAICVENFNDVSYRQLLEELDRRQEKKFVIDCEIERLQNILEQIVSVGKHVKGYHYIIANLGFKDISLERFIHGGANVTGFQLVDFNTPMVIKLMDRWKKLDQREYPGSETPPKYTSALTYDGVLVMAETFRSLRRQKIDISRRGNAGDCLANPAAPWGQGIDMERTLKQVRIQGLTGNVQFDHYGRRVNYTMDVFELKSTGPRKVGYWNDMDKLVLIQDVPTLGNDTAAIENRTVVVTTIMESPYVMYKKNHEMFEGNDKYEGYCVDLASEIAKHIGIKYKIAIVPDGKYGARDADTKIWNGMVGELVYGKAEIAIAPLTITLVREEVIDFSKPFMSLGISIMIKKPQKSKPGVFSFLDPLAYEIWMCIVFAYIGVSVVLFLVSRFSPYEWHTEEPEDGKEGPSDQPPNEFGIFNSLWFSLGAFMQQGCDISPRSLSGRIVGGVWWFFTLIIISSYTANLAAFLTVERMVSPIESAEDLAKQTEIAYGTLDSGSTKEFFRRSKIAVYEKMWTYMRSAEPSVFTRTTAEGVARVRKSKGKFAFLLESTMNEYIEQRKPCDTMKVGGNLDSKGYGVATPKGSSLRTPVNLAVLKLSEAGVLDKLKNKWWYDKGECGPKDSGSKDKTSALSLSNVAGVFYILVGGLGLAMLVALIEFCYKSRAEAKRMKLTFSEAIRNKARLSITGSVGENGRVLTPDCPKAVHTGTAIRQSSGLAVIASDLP

For orientation: melting point means the temperature of the solid-liquid transition. As to `CC(C)(C)c1ccc(C2(CNS(=O)(=O)C(F)(F)F)CC2)cc1`, the melting point was 82 to 84 °C.

For the compound `CC(C)S(=O)(=O)NCC1(c2ccc(C(C)(C)C)cc2)CC1`, the melting point lay within 87 to 89.5 °C.

Turning to `NS(=O)(=O)c1cc2c(cc1Cl)NC(C1CC3C=CC1C3)NS2(=O)=O` (stereo not drawn) [cyclothiazide], the “potentiation of agonist-induced excitability” value in series [1] is listed as “potentiate agonist-induced excitability of human GluR4B receptor”.
